Laboratory results as given in patent US11051515B2, “3-acyl-benzamides and their use as herbicides” (Bayer Aktiengesellschaft, priority 2017, dated 2021).

How the values were obtained:
MATIN [1] = experiment: Pre-emergence action against MATIN; type: in vivo, Matricaria inodora; details: Dosage 320 g/ha, pre-emergence
Outline: (§1)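 Seeds sown in sandy loam in wood-fiber pots and covered with soil. Greenhouse growth; visual damage scored after 3 weeks versus untreated controls (100% = dead, 0% = like control).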

AMARE [2] = experiment: Post-emergence action against AMARE; type: in vivo, Amaranthus retroflexus; details: post-emergence, dosage 80 g/ha, visual assessment about 3 weeks after treatment vs untreated controls
Outline: (§2)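 Weeds grown in sandy loam in greenhouse, treated at one-leaf stage (2–3 weeks after sowing) with WP or EC formulations sprayed as aqueous suspension/emulsion at 600 to […] water with 0.2% wetting agent. Visual rating after about 3 weeks versus untreated controls, as % herbicidal action (100% = plants dead, 0% = like control).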

AMARE [3] = experiment: Pre-emergence action against AMARE; type: in vivo, Amaranthus retroflexus; details: pre-emergence, dosage 320 g/ha, scored visually after 3 weeks vs untreated controls
Outline: as §1

PHBPU [4] = experiment: Post-emergence action against PHBPU; type: in vivo, Pharbitis purpurea; details: post-emergence, dosage 80 g/ha
Outline: as §2

VIOTR [5] = experiment: Pre-emergence action against VIOTR; type: in vivo, Viola tricolor; details: Dosage 320 g/ha, pre-emergence
Outline: as §1

ECHCG [6] = experiment: Pre-emergence action against ECHCG; type: in vivo, Echinochloa crus-galli; details: pre-emergence, dosage 320 g/ha, scored visually after 3 weeks vs untreated controls
Outline: as §1

MATIN [7] = experiment: Post-emergence action against MATIN; type: in vivo, Matricaria inodora; details: post-emergence, dosage 80 g/ha, visual assessment about 3 weeks after treatment vs untreated controls
Outline: as §2

AVEFA [8] = experiment: Pre-emergence action against AVEFA; type: in vivo, Avena fatua; details: dosage 320 g/ha, scored visually after 3 weeks vs untreated controls
Outline: as §1

ALOMY = experiment: Pre-emergence action against ALOMY; type: in vivo, Alopecurus myosuroides; details: dosage 320 g/ha; pre-emergence; scored visually after 3 weeks vs untreated controls; 100% = plants have died, 0% = like control plants
Outline: as §1

ABUTH [9] = experiment: Pre-emergence action against ABUTH; type: in vivo, Abutilon theophrasti; details: pre-emergence, dosage 320 g/ha, scored visually after 3 weeks vs untreated controls
Outline: as §1

LOLRI = experiment: Pre-emergence action against LOLRI; type: in vivo, Lolium rigidum; details: dosage 320 g/ha, scored visually after 3 weeks vs untreated controls
From the text: Seeds of monocotyledonous and dicotyledonous weed plants and crop plants are laid out in sandy loam soil in wood-fiber pots and covered with soil. The compounds of the invention, formulated in the form of wettable powders (WP) or as emulsion concentrates (EC), are then applied to the surface of the covering soil in the form of an aqueous suspension or emulsion at a water application rate equating to […], with addition of 0.2% wetting agent. After the treatment, the pots are placed in a greenhouse and kept under good growth conditions for the trial plants. The damage to the test plants is scored visually after a test period of 3 weeks by comparison with untreated controls (herbicidal activity in percent (%): 100% activity=the plants have died, 0% activity=like control plants).

STEME [10] = experiment: Pre-emergence action against STEME; type: in vivo, Stellaria media; details: Dosage 320 g/ha, pre-emergence
Outline: as §1

ABUTH [11] = experiment: Post-emergence action against ABUTH; type: in vivo, Abutilon theophrasti; details: post-emergence, dosage 80 g/ha, visual assessment about 3 weeks after treatment vs untreated controls
Outline: as §2

STEME [12] = experiment: Post-emergence action against STEME; type: in vivo, Stellaria media; details: post-emergence, dosage 80 g/ha
Outline: as §2

VERPE [13] = experiment: Pre-emergence action against VERPE; type: in vivo, Veronica persica; details: Dosage 320 g/ha, pre-emergence
Outline: as §1

SETVI [14] = experiment: Pre-emergence action against SETVI; type: in vivo, Setaria viridis; details: pre-emergence, dosage 320 g/ha, scored visually after 3 weeks vs untreated controls
Outline: as §1

PHBPU [15] = experiment: Pre-emergence action against PHBPU; type: in vivo, Pharbitis purpurea; details: Dosage 320 g/ha, pre-emergence
Outline: as §1

SETVI [16] = experiment: Post-emergence action against SETVI; type: in vivo, Setaria viridis; details: post-emergence, dosage 80 g/ha, visual assessment about 3 weeks after treatment vs untreated controls
Outline: as §2

VIOTR [17] = experiment: Post-emergence action against VIOTR; type: in vivo, Viola tricolor; details: post-emergence, dosage 80 g/ha
Outline: as §2

ECHCG [18] = experiment: Post-emergence action against ECHCG; type: in vivo, Echinochloa crus-galli; details: post-emergence, dosage 80 g/ha, visual assessment about 3 weeks after treatment vs untreated controls
Outline: as §2

VERPE [19] = experiment: Post-emergence action against VERPE; type: in vivo, Veronica persica; details: dosage 80 g/ha
Outline: as §2

CYPES [20] = experiment: Pre-emergence action against CYPES; type: in vivo, Cyperus esculentus; details: pre-emergence, dosage 320 g/ha, scored visually after 3 weeks vs untreated controls
Outline: as §1

CYPES [21] = experiment: Post-emergence action against CYPES; type: in vivo, Cyperus esculentus; details: post-emergence, dosage 80 g/ha, visual assessment about 3 weeks after treatment vs untreated controls
Outline: as §2

POLCO [22] = experiment: Pre-emergence action against POLCO; type: in vivo, Polygonum convolvulus; details: Dosage 320 g/ha, pre-emergence
Outline: as §1

POLCO [23] = experiment: Post-emergence action against POLCO; type: in vivo, Polygonum convolvulus; details: post-emergence, dosage 80 g/ha
Outline: as §2

AVEFA [24] = experiment: Post-emergence action against AVEFA; type: in vivo, Avena fatua; details: post-emergence, dosage 80 g/ha, visual assessment about 3 weeks after treatment vs untreated controls
Outline: as §2

| Structure (SMILES) | Pre-emergence action against MATIN (MATIN [1]) | Post-emergence action against AMARE (herbicidal action in percent) (AMARE [2]) | Pre-emergence action against AMARE (herbicidal activity) (AMARE [3]) | Post-emergence action against PHBPU (PHBPU [4]) | Pre-emergence action against VIOTR (VIOTR [5]) | Pre-emergence action against ECHCG (herbicidal activity) (ECHCG [6]) | Post-emergence action against MATIN (herbicidal action in percent) (MATIN [7]) | Pre-emergence action against AVEFA (herbicidal activity) (AVEFA [8]) | Pre-emergence action against ALOMY (herbicidal activity in percent) (ALOMY) | Pre-emergence action against ABUTH (herbicidal activity) (ABUTH [9]) | Pre-emergence action against LOLRI (herbicidal activity) (LOLRI) | Pre-emergence action against STEME (STEME [10]) | Post-emergence action against ABUTH (herbicidal action in percent) (ABUTH [11]) | Post-emergence action against STEME (STEME [12]) | Pre-emergence action against VERPE (VERPE [13]) | SETVI (Table B8, pre-emergence herbicidal activity) (SETVI [14]) | Pre-emergence action against PHBPU (PHBPU [15]) | Post-emergence action against SETVI (herbicidal action in percent) (SETVI [16]) | Post-emergence action against VIOTR (VIOTR [17]) | Post-emergence action against ECHCG (herbicidal action in percent) (ECHCG [18]) | other results |
| --- | --- | --- | --- | --- | --- | --- | --- | --- | --- | --- | --- | --- | --- | --- | --- | --- | --- | --- | --- | --- | --- |
| CCn1nnnc1NC(=O)c1ccc(C(F)(F)F)c(C(=O)COC)c1Cl [2-144] | 100% | 100% | 100% | 100 | 100% | 100% | 90% | 100% | 100% | 100% | 100% | 100% | 90% | 100 | 100% | 100% | 100% | 100% | 100 | 100% | Post-emergence action against VERPE (VERPE [19]): 90; Pre-emergence action against CYPES (herbicidal activity) (CYPES [20]): 100% |
| CCCn1nnnc1NC(=O)c1ccc(C(F)F)c(C(C)=O)c1Cl [3-164] | 100% | 100% | 100% | 100 | 100% | 100% | 100% | 100% | 90% | 100% | 90% | 100% | 90% | 100 | 100% | 100% | 90% | 100% | 100 | 100% | Post-emergence action against CYPES (herbicidal action in percent) (CYPES [21]): 90%; Pre-emergence action against POLCO (POLCO [22]): 100%; Post-emergence action against POLCO (POLCO [23]): 80; Post-emergence action against AVEFA (herbicidal action in percent) (AVEFA [24]): 80%; Pre-emergence action against CYPES (herbicidal activity) (CYPES [20]): 100% |
